In US10357546B2, “Acceleration of diabetic wound healing” (University of Notre Dame du Lac, priority 2014, dated 2019):
pKi: −log10 of the molar value.

Experiments:
MMP-8 = MMP-8 (Homo sapiens (Human), UniProt P22894); experiment: Enzyme inhibition, MMP-8 catalytic domain; type: biochemical
Experimental: (§1) Inhibitor stock solutions (10 mM) were prepared freshly in DMSO before enzyme inhibition assays. […] Enzyme inhibition studies were carried out using a Cary Eclipse fluorescence spectrophotometer (Varian, Walnut Creek, Calif., USA).

MMP-9 [1] = target: T1, MMP-9 (Homo sapiens (Human), UniProt P14780); experiment: Enzyme inhibition, MMP-9 catalytic domain; type: biochemical; settings: for residence time: calculated as 1/koff
Target sequence in this assay (P14780 107-444): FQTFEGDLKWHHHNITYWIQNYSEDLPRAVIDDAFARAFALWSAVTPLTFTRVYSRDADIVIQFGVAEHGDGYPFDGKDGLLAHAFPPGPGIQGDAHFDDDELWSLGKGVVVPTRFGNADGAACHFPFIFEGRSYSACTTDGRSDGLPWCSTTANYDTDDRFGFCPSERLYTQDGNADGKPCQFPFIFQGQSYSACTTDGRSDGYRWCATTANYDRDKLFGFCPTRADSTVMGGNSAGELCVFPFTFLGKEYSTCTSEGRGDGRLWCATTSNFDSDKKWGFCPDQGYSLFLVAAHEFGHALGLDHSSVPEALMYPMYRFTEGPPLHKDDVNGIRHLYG
Experimental: as §1

[2] = tested on: ultraviolet B irradiated murine skin; settings: Kobayashi & Shinkai (2005); cited from earlier work
MMP-9 [3] = target: T1, MMP-9; settings: for comparison; cited from earlier work
Target sequence in this assay (P14780 94-707, species assumed): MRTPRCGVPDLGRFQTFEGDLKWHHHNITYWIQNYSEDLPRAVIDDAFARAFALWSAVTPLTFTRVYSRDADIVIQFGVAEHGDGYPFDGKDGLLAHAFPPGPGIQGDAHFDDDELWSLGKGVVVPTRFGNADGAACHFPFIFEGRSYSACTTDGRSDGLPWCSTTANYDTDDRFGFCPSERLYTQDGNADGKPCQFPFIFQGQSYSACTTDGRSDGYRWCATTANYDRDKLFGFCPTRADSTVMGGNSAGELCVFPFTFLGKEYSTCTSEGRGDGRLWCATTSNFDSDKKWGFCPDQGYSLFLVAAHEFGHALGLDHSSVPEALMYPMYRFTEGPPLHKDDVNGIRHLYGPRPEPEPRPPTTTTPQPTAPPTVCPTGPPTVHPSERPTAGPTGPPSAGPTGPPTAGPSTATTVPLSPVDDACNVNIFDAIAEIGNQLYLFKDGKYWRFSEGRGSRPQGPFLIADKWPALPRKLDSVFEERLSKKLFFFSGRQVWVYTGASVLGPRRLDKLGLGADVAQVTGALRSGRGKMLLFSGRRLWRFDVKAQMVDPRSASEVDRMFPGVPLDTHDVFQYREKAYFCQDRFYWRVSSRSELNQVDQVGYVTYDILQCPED

MMP-2 = MMP-2 (Homo sapiens (Human), UniProt P08253); settings: for comparison; cited from earlier work
Chain of MMP-2 (P08253 110-660, species assumed): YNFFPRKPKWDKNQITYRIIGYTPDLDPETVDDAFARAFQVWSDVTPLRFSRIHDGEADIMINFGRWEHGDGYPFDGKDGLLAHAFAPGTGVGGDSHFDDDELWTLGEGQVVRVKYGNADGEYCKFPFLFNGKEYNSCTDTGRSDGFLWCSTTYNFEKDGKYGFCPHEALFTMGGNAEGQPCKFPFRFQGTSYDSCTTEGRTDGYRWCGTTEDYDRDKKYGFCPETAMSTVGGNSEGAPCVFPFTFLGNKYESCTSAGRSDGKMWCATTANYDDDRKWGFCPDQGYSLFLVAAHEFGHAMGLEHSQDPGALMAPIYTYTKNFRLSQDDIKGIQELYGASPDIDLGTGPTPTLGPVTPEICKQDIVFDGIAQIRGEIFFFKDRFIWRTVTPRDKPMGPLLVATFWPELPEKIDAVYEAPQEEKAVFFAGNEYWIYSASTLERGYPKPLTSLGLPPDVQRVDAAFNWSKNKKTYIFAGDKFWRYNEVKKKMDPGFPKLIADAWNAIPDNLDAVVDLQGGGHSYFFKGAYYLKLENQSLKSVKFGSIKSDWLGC

Chain of MMP-8 (P22894 100-262): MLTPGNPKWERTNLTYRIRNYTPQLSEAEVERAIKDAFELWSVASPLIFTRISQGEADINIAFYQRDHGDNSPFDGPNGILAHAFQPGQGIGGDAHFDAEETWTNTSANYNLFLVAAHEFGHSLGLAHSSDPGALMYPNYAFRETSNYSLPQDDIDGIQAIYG

Molecule | pKi (MMP-8) | Inhibition type, MMP-9 (MMP-9 [1]) | pKi (MMP-9 [1]) | residence time (MMP-9 [1]) [min] | other results
CCOC(=O)Oc1ccc(Oc2ccc(S(=O)(=O)CC3CS3)cc2)cc1 (stereo not shown) [ND-395] | 4.96 | slow-binding | 6.03 | 119 | 
O=S(=O)(CC1CS1)c1ccc(Oc2ccccc2)cc1 (stereo not shown) [SB-3CT, reference compound] |  | slow-binding |  |  | 
CCC(=C/[C@H](C)C/C=C/C(C)=C/[C@@H](C)C(=O)[C@@H](C)[C@H](O)[C@@H](C)C/C(C)=C/C(=O)O)/C=C/[C@@H]1OC(=O)C=C[C@@H]1C [leptomycin B] |  |  |  |  | inflammation in ultraviolet B irradiated murine skin [2]: suppressed inflammation
O=S(=O)(CC1CS1)c1ccc(Oc2ccc(O)cc2)cc1 (stereo not shown) [p-OH SB-3CT] | 5.59 | slow-binding | 6.80 | 24.5 | Inhibition type, MMP-8 (MMP-8): non-competitive
TIMP1: endogenous protein inhibitor, tissue inhibitor of metalloproteinase |  |  |  |  | residence time of TIMP on MMP-9 (MMP-9 [3]): 7.9 min; residence time of TIMP on MMP-2 (MMP-2): 6.9 min
